Data on one molecule can be found in EP0286781A2, “Pharmaceutical preparation for treating gastro-intestinal tract diseases” (HEUMANN PHARMA GMBH & CO, priority 1987, dated 1988).

For assay [1] the following is noted: hochdosiert, ca. 50 mg/kg; A. Robert u.a. (1984); cited from earlier work.
The test system of assay [2] is immobilisationsstreßinduzierten gastromukosalen Schädigung der Ratte. The experiment in a line: Immobilisation-stress-induced gastromucosal damage in the rat (ulcer index). In kind it is in vivo, Sprague-Dawley-Ratten. The following applies: Dosis 50 mg/kg, intragastral in 1%iger Tylose. An excerpt:
Untersuchungen am Modell der immobilisationsstreßinduzierten gastromukosalen Schädigung der Ratte
(1984), "Scand. J. Gastroenterol.", 19, (Suppl. 101), 69).
Gestreßt wurden die Tiere unmittelbar nach Applikation. Nach Versuchsende wurden den Tieren die Mägen in Ethernarkose entnommen. Die Mägen wurden entlang der großen Kurvatur eröffnet und gespült. Ausmaß und Beschaffenheit der Läsionen wurden nach einer von Marazzi-Uberti und Turba (C. Med. exp., 4, 284 (1961)) angegebenen Einteilung visuell ausgezählt und als Ulcus-Index ausgedrückt.

On to `CN=C(NC#N)NCCSCc1[nH]cnc1C` [Cimetidin], for which the “ulcus- bzw. cytoprotektive Wirkung” value in assay [1] was “ulcus- bzw. cytoprotektive Wirkung”. In addition, in assay [2] (rats fasted 16 h, 10 animals, control 1% Tylose 69,8 ± 10,7, significant vs control), the “Ulcus-Index (MW ±) SD” value is listed as 32,1 ± 6,6*). Also, in assay [2] (inhibition of Ulcus-Index vs 1% Tylose control), the “% Hemmung” value was 54%.
